Test results taken from ChEMBL document CHEMBL1201862, “PubChem BioAssay data set” (2004).
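A five-concentration, 48-hour dose response in 96-well plates underlies each endpoint, interpolated linearly between surrounding concentrations. Here, GI50 denotes the concentration required for 50% inhibition of growth.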 Active and inactive are the calls of the source. No stated cut-off is given here; in the data, active = GI50 up to about 1.1 µM and inactive = higher. Residues, ends and D or L forms follow the SMILES beside them. *: point of attachment. Cbz = O=C(OCc1ccccc1)*; Boc = CC(C)(C)OC(=O)*; OSu = O=C1CCC(=O)N1O*; Bn = c1ccc(C*)cc1

What was measured:
Assay in all cases: NCI-60 cell line screen, 48 h
[1] = system: 786-0
[2] = system: COLO 205
[3] = system: HL-60
[4] = system: HOP-62
[5] = system: IGROV-1
[6] = system: KM12
[7] = system: M14
[8] = system: MDA-MB-435
[9] = system: NCI-H23
[10] = system: OVCAR-5
[11] = system: SF-295
[12] = system: SK-MEL-28
[13] = system: SK-MEL-5
[14] = system: SR
[15] = system: SW-620
[16] = system: UACC-62
[17] = system: Malme-3M
[18] = system: RXF 393
[19] = system: SF-268
[20] = system: TK-10

Compound	GI50 [1]	GI50 [2]	GI50 [3]	GI50 [4]	GI50 [5]	GI50 [6]	GI50 [7]	GI50 [8]	GI50 [9]	GI50 [10]	GI50 [11]	GI50 [12]	GI50 [13]	GI50 [14]	GI50 [15]	GI50 [16]	GI50 [17]	GI50 [18]	GI50 [19]	GI50 [20]
N#Cc1c(N2CCOCC2)ncn(-c2ccccc2)c1=O	> 100 µM (inactive)	> 100 µM (inactive)	3.08 µM (inactive)	> 100 µM (inactive)	63.4 µM (inactive)	> 100 µM (inactive)	> 100 µM (inactive)	> 100 µM (inactive)	> 100 µM (inactive)	> 100 µM (inactive)	> 100 µM (inactive)	> 100 µM (inactive)	> 100 µM (inactive)	> 100 µM (inactive)	> 100 µM (inactive)	> 100 µM (inactive)	–	–	–	–
CC(C)(C)OC(=O)NC(Cc1ccc(OCc2ccccc2)cc1)C(=O)NC(CCCCNC(=O)OCc1ccccc1)C(=O)NC(CCCCNC(=O)OCc1ccccc1)C(=O)ON1C(=O)CCC1=O (stereo not drawn) (Boc-Tyr(Bn)-Lys(Cbz)-Lys(Cbz)-OSu; configuration not given here)	20.8 µM (inactive)	31.1 µM (inactive)	–	> 100 µM (inactive)	31.5 µM (inactive)	46.1 µM (inactive)	> 100 µM (inactive)	33.1 µM (inactive)	28.6 µM (inactive)	36.7 µM (inactive)	24 µM (inactive)	30.6 µM (inactive)	26 µM (inactive)	> 100 µM (inactive)	–	15.7 µM (inactive)	54.3 µM (inactive)	39.4 µM (inactive)	40.2 µM (inactive)	> 100 µM (inactive)
N#CC1C(=O)Nc2sc(C(=O)c3ccc(Br)cc3)c(N)c2C12CCCCC2 (stereo not drawn)	31.4 µM (inactive)	13.7 µM (inactive)	–	38.5 µM (inactive)	20.2 µM (inactive)	13.4 µM (inactive)	13.3 µM (inactive)	18.9 µM (inactive)	25 µM (inactive)	40.5 µM (inactive)	30.5 µM (inactive)	16 µM (inactive)	14.6 µM (inactive)	7.96 µM (inactive)	16.6 µM (inactive)	18.3 µM (inactive)	26.1 µM (inactive)	7.96 µM (inactive)	22.7 µM (inactive)	33.2 µM (inactive)
COc1ccc(/C=C2\N=C3N(Cc4ccccc4)C=C(N)N3C2=O)cc1	52.7 µM (inactive)	> 100 µM (inactive)	55 µM (inactive)	39.3 µM (inactive)	69.3 µM (inactive)	> 100 µM (inactive)	> 100 µM (inactive)	> 100 µM (inactive)	> 100 µM (inactive)	82.8 µM (inactive)	61.2 µM (inactive)	> 100 µM (inactive)	46.7 µM (inactive)	–	> 100 µM (inactive)	> 100 µM (inactive)	> 100 µM (inactive)	> 100 µM (inactive)	> 100 µM (inactive)	> 100 µM (inactive)
c1cnc(N2CCN(Cc3c[nH]c4ccccc34)CC2)nc1	14.3 µM (inactive)	25.4 µM (inactive)	51.6 µM (inactive)	56.1 µM (inactive)	> 100 µM (inactive)	20.4 µM (inactive)	45.4 µM (inactive)	31 µM (inactive)	93.5 µM (inactive)	> 100 µM (inactive)	38.3 µM (inactive)	> 100 µM (inactive)	36.2 µM (inactive)	–	> 100 µM (inactive)	45.4 µM (inactive)	43.4 µM (inactive)	41.9 µM (inactive)	74.5 µM (inactive)	22.9 µM (inactive)
COC1=C2C=[N+](C)C3C(=C2C=CC1OC)Cc1cc2c(cc13)OCO2 (stereo not drawn)	11.9 µM (inactive)	5.26 µM (inactive)	4.61 µM (inactive)	13.9 µM (inactive)	> 10 µM (inactive)	2.8 µM (inactive)	15.5 µM (inactive)	15.4 µM (inactive)	13 µM (inactive)	18.2 µM (inactive)	15.3 µM (inactive)	15.1 µM (inactive)	11.2 µM (inactive)	0.879 µM (active)	26.2 µM (inactive)	7.6 µM (inactive)	3.88 µM (inactive)	–	3.8 µM (inactive)	15.5 µM (inactive)
O=C1N2CCN=C2c2ccccc2C1(O)c1ccccc1 (stereo not drawn)	> 100 µM (inactive)	> 100 µM (inactive)	> 100 µM (inactive)	> 100 µM (inactive)	> 100 µM (inactive)	> 100 µM (inactive)	> 100 µM (inactive)	> 100 µM (inactive)	> 100 µM (inactive)	> 100 µM (inactive)	> 100 µM (inactive)	> 100 µM (inactive)	> 100 µM (inactive)	> 100 µM (inactive)	> 100 µM (inactive)	> 100 µM (inactive)	–	–	> 100 µM (inactive)	> 100 µM (inactive)
c1cc(-c2ccc(-c3ccsc3)s2)cs1	36.1 µM (inactive)	> 100 µM (inactive)	19.2 µM (inactive)	39.6 µM (inactive)	80.2 µM (inactive)	> 10 µM (inactive)	31 µM (inactive)	> 100 µM (inactive)	16.2 µM (inactive)	> 100 µM (inactive)	54 µM (inactive)	–	> 100 µM (inactive)	28.2 µM (inactive)	44.3 µM (inactive)	54.2 µM (inactive)	–	73.1 µM (inactive)	> 100 µM (inactive)	76.4 µM (inactive)
COc1cc(/C=C2/CCS(=O)(=O)c3ccc(C)cc3C2=O)cc(OC)c1OC	3.3 µM (inactive)	4.85 µM (inactive)	1.41 µM (inactive)	6.04 µM (inactive)	4.06 µM (inactive)	4.54 µM (inactive)	5.33 µM (inactive)	3.79 µM (inactive)	3.64 µM (inactive)	5.87 µM (inactive)	14.1 µM (inactive)	3.59 µM (inactive)	2.53 µM (inactive)	2.32 µM (inactive)	4.76 µM (inactive)	4.12 µM (inactive)	3.63 µM (inactive)	–	4.49 µM (inactive)	5.37 µM (inactive)
O=C1CSC(c2ccccc2)N1c1ccc(-c2ccc(-n3c(-c4ccccc4)nc4ccccc4c3=O)cc2)cc1 (stereo not drawn)	55 µM (inactive)	38.2 µM (inactive)	27.4 µM (inactive)	> 100 µM (inactive)	> 100 µM (inactive)	26.2 µM (inactive)	50 µM (inactive)	49.8 µM (inactive)	57.1 µM (inactive)	> 100 µM (inactive)	64.3 µM (inactive)	> 100 µM (inactive)	25.2 µM (inactive)	19.5 µM (inactive)	97.7 µM (inactive)	34.6 µM (inactive)	35.4 µM (inactive)	–	49.4 µM (inactive)	57.9 µM (inactive)
O=c1c2c3c(sc2nc2n1N=CN(c1ccc(Cl)cc1)C2)CCCC3	19.3 µM (inactive)	35.8 µM (inactive)	–	50 µM (inactive)	> 100 µM (inactive)	> 100 µM (inactive)	> 100 µM (inactive)	> 100 µM (inactive)	> 100 µM (inactive)	> 100 µM (inactive)	70.1 µM (inactive)	> 100 µM (inactive)	44.8 µM (inactive)	15.7 µM (inactive)	> 100 µM (inactive)	56.8 µM (inactive)	16.2 µM (inactive)	12.3 µM (inactive)	20.8 µM (inactive)	> 100 µM (inactive)
c1ccc([P+](c2ccccc2)(c2ccccc2)C2c3ccccc3-c3ccccc32)cc1	3.09 µM (inactive)	1.33 µM (inactive)	1.16 µM (inactive)	1.5 µM (inactive)	1.98 µM (inactive)	–	3.14 µM (inactive)	0.655 µM (active)	1.9 µM (inactive)	2.59 µM (inactive)	1.75 µM (inactive)	3.01 µM (inactive)	1.77 µM (inactive)	–	3.08 µM (inactive)	1.26 µM (inactive)	2.35 µM (inactive)	1.86 µM (inactive)	2.77 µM (inactive)	2.53 µM (inactive)
CC(O)CNC(=O)Nc1c(C(F)(F)F)cc(-c2ccccc2)[nH]c1=O (stereo not drawn)	> 100 µM (inactive)	> 100 µM (inactive)	0.343 µM (active)	> 100 µM (inactive)	> 100 µM (inactive)	> 100 µM (inactive)	> 100 µM (inactive)	> 100 µM (inactive)	> 100 µM (inactive)	> 100 µM (inactive)	> 100 µM (inactive)	> 100 µM (inactive)	> 100 µM (inactive)	–	> 100 µM (inactive)	> 100 µM (inactive)	> 100 µM (inactive)	> 100 µM (inactive)	> 100 µM (inactive)	> 100 µM (inactive)
N=C(N)N/N=C\c1c(-c2cccc([N+](=O)[O-])c2)nc2sccn12	3.89 µM (inactive)	2.39 µM (inactive)	28.9 µM (inactive)	3.54 µM (inactive)	15 µM (inactive)	1.02 µM (active)	2.52 µM (inactive)	2.59 µM (inactive)	3.94 µM (inactive)	3.91 µM (inactive)	2.64 µM (inactive)	2.04 µM (inactive)	14.6 µM (inactive)	–	2.08 µM (inactive)	29 µM (inactive)	24.4 µM (inactive)	2.64 µM (inactive)	2.97 µM (inactive)	2.47 µM (inactive)
COc1cccc2c(Nc3ccc(S(=O)(=O)N=C(N)N)cc3)c3ccc([N+](=O)[O-])cc3nc12	11.5 µM (inactive)	18.8 µM (inactive)	–	15.7 µM (inactive)	8.2 µM (inactive)	3.99 µM (inactive)	16.3 µM (inactive)	23.6 µM (inactive)	14.7 µM (inactive)	44.6 µM (inactive)	29.4 µM (inactive)	35.2 µM (inactive)	11.6 µM (inactive)	11.3 µM (inactive)	16.7 µM (inactive)	5.98 µM (inactive)	10.7 µM (inactive)	40.4 µM (inactive)	5.62 µM (inactive)	25.6 µM (inactive)
